According to patent US20070111258A1, “Compositions and methods for modulating the acute phase response” (priority 2005, published 2007):

Experiments:
[1] = test system: BiP, CHOP, EDEM, spliced XBP1, SAP and CRP mRNAs; assay: UPR and APR mRNA induction in mouse liver after injection (quantitative real-time RT-PCR); type: in vivo; settings: intraperitoneal injection of Tm 2 mg/kg; 24 hours
Experimental: Levels of spliced XBP1 mRNA were determined by quantitative real-time RT-PCR (lower panel). […] (B) Induction of CRP, SAP, BiP and spliced XBP1 mRNAs in mice injected with Tm. C57BU6J mice at 3-months of age were injected intraperitoneally with Tm (2 mg/kg body weight) in 150 mM dextrose solution. Mice were injected with the same volume of dextrose solution as a control. Liver tissues were collected from mice at 24 hours after injection for RNA isolation. (C-E) Induction of the BiP, CHOP, EDEM, spliced XBP1, SAP and CRP mRNAs in mice challenged with IL6, IL1β, LPS or Tm. Wild-type C57B1/6J mice at 3-months of age were intraperitoneally injected with recombinant murine IL6 (25 ng/gram body weight), recombinant murine IL1β (25 ng/gram body weight), LPS (3 μg/gram body weight) or Tm (2 μg/gram body weight). Mice were injected with the same volume of NaCL (for panels C and D) or dextrose (for panels E) solution as controls. At 24 hours after injection, liver samples were collected for isolating total RNA. Quantitative real-time RT-PCR was used to determine the mRNA levels. Fold changes of mRNA induction were determined after normalization of the mRNA levels to internal control 18S ribosomal RNA levels. Each bar denotes the mean±S.D., n=5 mice per injection.
Quantitative real-time RT-PCR was performed as previously described (Back et al., 2005). Briefly, total cellular RNA prepared was reverse-transcribed to cDNA using a random primer (Applied Biosystems). The reaction mixture, containing SYBR Green PCR Master Mix (Applied Biosystems), was run in a 7900HT Fast Real-Time PCR System (Applied Biosystems). Real-time PCR primer sequences for quantification of murine XBP1 mRNA splicing are: the forward primer 5′-[sequence]-3′, and the reverse primer 5′-[sequence]-3′. Other primer sequences were designed by Primer Express (Applied Biosystems).

[2] = test system: CREBH and ATF6 heterodimers; assay: IP-Western blot of CREBH and ATF6 interaction in 293T cells; type: cell-based, human; settings: 293T cells expressing flag-tagged CREBH; 8 hours after Tm treatment
Experimental: FIG. 11 depicts the synergistic interaction of CREBH with ATF6 to activate transcription of the major APR genes. (A) Luciferase reporter analysis of trans-activation effects of CREBH on promoters of the murine SAP gene and the human CRP gene in H2.35 cells. H2.35 cells in a 35 mm collagen-coated plate were co-transfected with a control vector or a CREBH expression vector (0.25 μg), the luciferase reporter (0.6 μg) and pcDNA3-LacZ (0.25 μg), and were then cultured in the absence or presence of Tm (5 μg/ml) for 10 hours. (B) CREBH-DN efficiently suppresses CREBH trans-activation on the murine SAP and the human CRP promoters. […] (C) Interaction between ATF6 and CREBH was determined by IP-Western blot analysis. […] Expression levels of CREBH in the transfected cells were determined by Western blot analysis of total cell lysates using the anti-flag antibody (lower panel). […]
For analysis of expression and cleavage of CREBH protein, total cell lysates were prepared from H2.35 cells or COS7 cells using Nonidet P-40 lysis buffer (1% NP-40, 50 mM Tris-HCl at pH 7.5, 150 mM NaCl, 0.05% SDS) supplemented with protease inhibitors (Complete Mini from Roche Applied Science), 0.1 mM sodium vanadate, and 1 mM sodium fluoride. […] The total cell lysate, membrane and nuclear fractions were subjected to SDS-PAGE and then analyzed by Western blot using anti-flag monoclonal antibody or other antibodies. […]

In the case of tunicamycin [Tm], the “expression of APR genes and UPR genes in the livers of mice” value [1] is reported as “induced expression of both the APR genes and the UPR genes” and the “interaction between CREBH and ATF6” value [2] is reported as “significantly increased”.
